“Also recorded” adds a separate entry of the source. Where two headings read alike, the source gives them in different places.
What was measured:
GPR139 [1] = target: T1, GPR139 (Homo sapiens, UniProt Q6DWJ6); assay: IP-One HTRF assay measuring Gq activation in CHO-139; assay type: cell-based
T1 sequence (Q6DWJ6 1-353): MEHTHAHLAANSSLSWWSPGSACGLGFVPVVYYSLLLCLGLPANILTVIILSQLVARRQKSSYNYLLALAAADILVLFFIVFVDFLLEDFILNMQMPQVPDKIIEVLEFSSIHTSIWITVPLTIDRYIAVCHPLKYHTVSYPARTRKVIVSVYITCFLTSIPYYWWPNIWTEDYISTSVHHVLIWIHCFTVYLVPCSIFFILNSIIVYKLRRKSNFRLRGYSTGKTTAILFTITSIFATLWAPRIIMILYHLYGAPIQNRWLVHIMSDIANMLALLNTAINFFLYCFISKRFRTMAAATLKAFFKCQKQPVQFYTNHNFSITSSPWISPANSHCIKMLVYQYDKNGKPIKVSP
Description: Figure 3 IP-One HTRF® assay measuring Gq activation. Concentration-response curves of 1a, 7c (racemic), L-Trp, L-Phe, DL43, DL126, DL24, DL22, DL132 and DL130 on (A) CHO-139 and (B) CHO-M1 in the IP-One assay (final conc of LiCl = 20 mM). The dotted line represent the [IP1] response from (A) 10 μM 1a and (B) 1 μM carbachol, which is an agonist for the muscarinic acethylcholine receptor M1 that activates the Gq coupled pathway. The graphs are means ± SEM based on three independent experiments performed in triplicates.
The IP-One assay was performed as described in the work by Thomsen et al.[28], with few modifications. Breifly, CHO-139 and CHO-M1 were detached and re-suspended to a concentration of 10 million cells/mL. 5 μL 2x concentrated compound (+40 mM LiCl) and 5 μL cell suspension (50,000 cells/well) was mixed. The plate was sealed and incubated at 37 °C for 1 hour. Next, 10 μL detection reagents (lysis buffer containing 2.5% Eu^3+-anti-IP1 antibody and 2.5% IP1-d2) was added and the plate was incubated for 1 hour at room temperature. The plate was read on an Envision (PerkinElmer, Waltham, MA, USA). The time resolved-fluorescence resonance energy transfer (TR-FRET) 665 nm/615 nm ratio, which is inversely proportional to the inositol monophosphate (IP1) accumulation, was used to determine the concentration of the IP1 response.

GPR139 [2] = target: T1, GPR139; design: method as in ref 11 (Shi et al.); conditions: ref 11 (Shi et al.), cited from earlier work; for EC50: GPR139 agonist potency
GPR139 [3] = target: T1, GPR139; design: method as in ref 13, 14 (Dvorak et al.); conditions: 14 (Dvorak et al.), cited from earlier work; for Emax: relative to L-Trp; for EC50: mean of at least three experiments
GPR139 [4] = target: T1, GPR139; assay: Fluo-4 Ca2+-assay in CHO-k1 cells stably expressing GPR139 (CHO-GPR139); assay type: cell-based; conditions: for Emax: CHO-K1, relative to 1a
Description: Compound 1a[11] was kindly provided by H. Lundbeck A/S, Denmark. Compound 7c (Enamine no: Z31449867) was tested as a racemate, as the (S)-form described by Janssen et al. was not commercially available. All compounds were dissolved to 20 mM in DMSO (Sigma, D2650) and subsequently diluted in a HEPES buffer (HBSS (Invitrogen, 14025) supplemented with 20 mM HEPES + 1 mM MgCl2 + 1 mM CaCl2, pH = 7.4) to a final concentration 0.5% DMSO in the assay. The DMSO level was kept constant for all concentrations of all compounds. DMSO was confirmed not to have any activity by itself at this concentration. L-Tryptophan (T0254) and L-Phenylalanine (P2126) were obtained from Sigma-Aldrich and dissolved directly in buffer.
All compounds were tested on a CHO-k1 cell line stably expressing GPR139 (CHO-GPR139) kindly provided by H. Lundbeck A/S, Denmark, and also on a CHO-k1 cell line stably expressing the M1 receptor (CHO-M1) (The Missouri S&T cDNA Resource Center, #CEM100TN00) to check for specificity. The CHO-GPR139 was grown in Dulbecco’s modified eagle medium (DMEM) F12-Kaighn’s (Gibco, 21127) supplemented with 10% dialysed fetal bovine serum (Gibco, 26400, United States origin), 1% GlutaMAX^TM-I (100X) (Gibco, 35050), and 100 units/mL penicillin and 100 μg/mL streptomycin (Gibco, 15140) and 1.0 mg/mL geneticin (Invitrogen, 1181103). CHO-M1 was grown in Ham’s F12 (Gibco, 21765) supplemented with 10% fetal bovine serum (Gibco, 10270, South America origin) +100 units/mL penicillin and 100 μg/mL streptomycin (Invitrogen, 15140–122) and 0,25 mg/mL geneticin (Life Technologies, 11811–031). Compound 1a and carbamoylcholine chloride (Sigma-Aldrich, C4382) were used as positive controls in the two cell lines, respectively.
30.000 cells/well were plated in black 96-well plates with flat clear bottoms (Corning, Falcon, 353219) and incubated overnight. The Fluo-4 dye loading solution (Invitrogen, F36206) was prepared according to the manufacturer’s instructions by dissolving it in HEPES buffer supplemented with 2.5 mM probenecid. 50 μL dye loading solution was added to each well. Cells were incubated with the Fluo-4 dye for 60 min at 37 °C, then washed with 100 μL HEPES buffer. 100 μL HEPES buffer supplemented with 2.5 mM probenecid was then added to each well and incubated in 10 minutes at 37 °C before measurement. 33 μL of the test compounds (4x concentrated) were added automatically after baseline measurements. Intracellular calcium change was recorded on a NOVOstar instrument (BMG Labtech) at 37 °C with an excitation filter of 485 nm and an emission filters 520 nm. Data originate from three independent experiments in triplicates.

[5] = CHO-GPR139, mean of at least three experiments

Compound | Emax (GPR139 [2]) | Emax (GPR139 [3]) | further results
CC(NC(=O)CNC(=O)c1cccc(Cl)c1)c1ccccc1 (racemic) [7c (racemic)] | – | – | EC50 (GPR139 [1]; IP-One HTRF assay, CHO-139, 20 mM LiCl): 0.49 µM; Emax (GPR139 [1]; IP-One HTRF assay, relative to compound 1a, 7c at 10 μM and L-Trp at 20 mM (highest concentration tested)): 120^(*) %; agonist type (GPR139 [1]; IP-One assay, compared to compound 1a): super-agonists
O=C(NNC(=O)c1ccccc1)Nc1cccc2ccccc12 [1b] | 85% | – | EC50 (GPR139 [2]): 2.4 µM
CCOc1ccccc1C(=O)NNC(=O)Nc1cccc2ccccc12 [1d] | 53% | – | –
CCc1cc(CC)cc(C(=O)NNC(=O)Nc2cccc3ccccc23)c1 [1e] | 6% | – | –
O=C(NNC(=O)c1ccc(F)cc1)Nc1cccc2ccccc12 [1g] | 96% | – | EC50 (GPR139 [2]): 0.44 µM
COc1cc(C(=O)NNC(=O)Nc2cccc3ccccc23)cc(OC)c1OC [1h] | 76% | – | EC50 (GPR139 [2]): 0.063 µM
O=C(NNC(=O)c1ccc(Oc2ccccc2)cc1)Nc1cccc2ccccc12 [1i] | 61% | – | EC50 (GPR139 [2]): 2.1 µM
COc1cc(OC)cc(C(=O)NNC(=O)Nc2ccc(Br)c3ccccc23)c1 [1j] | 73% | – | –
COc1cc(OC)cc(C(=O)NNC(=O)Nc2ccc(C#N)c3ccccc23)c1 [1k] | 20% | – | –
COc1cc(OC)cc(C(=O)NNC(=O)Nc2c(C)ccc3ccccc23)c1 [1l] | 86% | – | EC50 (GPR139 [2]): 0.086 µM
COc1cc(OC)cc(C(=O)NNC(=O)Nc2ccc(Cl)c3ccccc23)c1 [1m] | 64% | – | –
COc1cc(OC)cc(C(=O)NNC(=O)Nc2cccc3c(Br)cccc23)c1 [1n] | 54% | – | –
COc1cc(OC)cc(C(=O)NNC(=O)Nc2cccc3ccc(OC)cc23)c1 [1o] | 50% | – | –
COc1cc(CNNC(=O)Nc2cccc3ccccc23)cc(OC)c1 [1p] | – | – | EC50 (GPR139 [2]): > 10 µM
COc1cc(OC)cc(C(=O)CNC(=O)Nc2cccc3ccccc23)c1 [1q] | 100% | – | EC50 (GPR139 [2]): 3.3 µM
COc1cc(OC)cc(C(=O)NCC(=O)Nc2cccc3ccccc23)c1 [1r] | 98% | – | EC50 (GPR139 [2]): 0.18 µM
COc1cc(OC)cc(C(=O)N(C)NC(=O)Cc2cccc3ccccc23)c1 [1t] | 74% | – | EC50 (GPR139 [2]): 2.5 µM
COc1cc(OC)cc(C(=O)NN(C)C(=O)Cc2cccc3ccccc23)c1 [1u] | 84% | – | EC50 (GPR139 [2]): 5.1 µM
C[C@H](NC(=O)CNC(=O)c1ccccc1)c1ccccc1 [7a] | – | 130% | –
C[C@H](NC(=O)CNC(=O)c1ccc(Cl)cc1)c1ccccc1 [7d] | – | 117% | –
Cc1cccc(C(=O)NCC(=O)N[C@@H](C)c2ccccc2)c1 [7e] | – | 137% | –
C[C@H](NC(=O)CNC(=O)c1cccc(C#N)c1)c1ccccc1 [7f] | – | 129% | –
C[C@H](NC(=O)CNC(=O)c1cccc(F)c1)c1ccccc1 [7g] | – | 118% | –

Compound | Emax (GPR139 [2]) | Emax (GPR139 [3]) | further results
COc1cccc(C(=O)NCC(=O)N[C@@H](C)c2ccccc2)c1 [7h] | – | 146% | –
C[C@H](NC(=O)CNC(=O)c1cccc(C(F)(F)F)c1)c1ccccc1 [7i] | – | 134% | –
C[C@H](NC(=O)CNC(=O)c1cccc(OC(F)(F)F)c1)c1ccccc1 [7j] | – | 129% | –
C[C@H](NC(=O)CNC(=O)c1cccc(Cl)c1Cl)c1ccccc1 [7k] | – | 113% | –
C[C@H](NC(=O)CNC(=O)c1ccc(Cl)c(Cl)c1)c1ccccc1 [7l] | – | 106% | –
C[C@H](NC(=O)CNC(=O)c1cc(Cl)ccc1Cl)c1ccccc1 [7m] | – | 139% | –
C[C@H](NC(=O)CNC(=O)c1cc(Cl)cc(Cl)c1)c1ccccc1 [7n] | – | 119% | –
C[C@H](NC(=O)CNC(=O)c1cc(F)cc(Cl)c1)c1ccccc1 [7o] | – | 124% | –
C[C@H](NC(=O)CNC(=O)c1cc(Cl)cc(Br)c1)c1ccccc1 [7p] | – | 113% | –
COc1cc(OC)cc(C(=O)NCC(=O)N[C@@H](C)c2ccccc2)c1 [7q] | – | 149% | –
CCN1C(C)=NC2C=C(C(=O)NNC(=O)c3c(-c4ccccc4)noc3C)C=CC21 (stereo not drawn) [DL83] | – | – | EC50 (GPR139 [4]; values in text): > 10 µM
CCn1c(C)nc2cc(C(=O)NNC(=O)Cc3coc4ccc5ccccc5c34)ccc21 [DL85] | – | – | EC50 (GPR139 [4]; [5]): 1.02 µM; Emax (GPR139 [4]): 95%; EC50 (GPR139 [4]; values in text): 1.02 µM
COc1cc(OC)cc(C(=O)NNC(=O)c2cccc3ccccc23)c1 [DL96] | – | – | GPR139 agonist activity (in words) (GPR139 [4]; CHO-GPR139): loss of activity; also recorded: Inactive
CN(C(=O)CNC(=O)c1ccc2c(c1)OCO2)C1CCc2ccccc21 (stereo not drawn) [DL131] | – | – | EC50 (GPR139 [4]; [5]): 1.09 µM; Emax (GPR139 [4]): 101%
O=C(CN1CCCc2ccccc21)NNC(=O)c1ccc2[nH]cnc2c1 [DL144] | – | – | EC50 (GPR139 [4]; [5]): 1.16 µM; Emax (GPR139 [4]): 96%
CCn1c(C)nc2cc(C(=O)NNC(=O)CC(C)c3ccccc3)ccc21 (stereo not drawn) [DL146] | – | – | EC50 (GPR139 [4]; [5]): 4.72 µM; Emax (GPR139 [4]): 85%; EC50 (GPR139 [4]; values in Figure 5 and Supplementary Chart 1): 4.71 µM
C=C(C)c1cccc(C(C)(C)NC(=O)NNC(=O)c2ccc3c(c2)nc(C)n3CC)c1 [DL148] | – | – | EC50 (GPR139 [4]; [5]): 1.22 µM; Emax (GPR139 [4]): 100%
COc1cc(OC)cc(C(=O)NCCC(=O)N2CCCc3ccccc32)c1 [DL154] | – | – | EC50 (GPR139 [4]; [5]): 1.5 µM; Emax (GPR139 [4]): 91%
C[C@H](NC(=O)CNCc1cccc(Cl)c1)c1ccccc1 [compound 8] | – | – | EC50 (GPR139 [3]): > 10 µM
C[C@H](NCCNC(=O)c1cccc(Cl)c1)c1ccccc1 [compound 9] | – | – | EC50 (GPR139 [3]): > 10 µM
COc1cccc(C(=O)N[C@@H](C)C(=O)N[C@@H](C)c2ccccc2)c1 [compound 10] | – | 143% | –
COc1cccc(C(=O)N[C@H](C)C(=O)N[C@@H](C)c2ccccc2)c1 [compound 11] | – | 88% | –
COc1cccc(C(=O)N[C@@H](CO)C(=O)N[C@@H](C)c2ccccc2)c1 [compound 12] | – | 107% | –

Reference: paper PMC5103216, “Novel Agonist Bioisosteres and Common Structure-Activity Relationships for The Orphan G Protein-Coupled Receptor GPR139” (Scientific Reports, 2016)
